Assays:
[1] = tested on: Total ATXN3 (tATXN3) protein; experiment: Endogenous Total ATXN3 (tATXN3) Protein Assay (MSD immunoassay of cell lysates); format: cell-based; settings: average IC50, total ATXN3 protein in cell lysate after 48 h with compound (Table 1)
Procedure, shortened: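 Cells in DMEM/10% FBS were plated at 10,000 per well onto 7-point, 3.16-fold compound dilutions in duplicate for 48 h at 37° C, then lysed. Total ATXN3 in lysates was measured by MSD sandwich immunoassay: mouse anti-ATXN3 capture, rabbit anti-ATXN3 detection, SULFO-TAG anti-rabbit. Average IC50 was reported in star bins.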

[2] = tested on: ATXN3 pre-mRNA; experiment: RT-qPCR Assay to Quantify Exon 4 Skipping in ATXN3 pre-mRNA in Cells; format: cell-based; settings: percent exon 4 skipping in ATXN3 pre-mRNA, RT-qPCR of cell lysates; average IC50
Procedure, shortened: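 Cells plated at 10,000/well onto a 7-point, 3.16-fold DMSO dilution series (duplicates), incubated 24 h at 37 °C, then lysed. Exon 4 skipping measured by one-step RT-qPCR (48 °C RT, 40 cycles); IC50 interpolated from dose-response fit of percent skipping.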

Row | Structure (SMILES) | IC50 [1] [µM] | IC50 [2] [µM]
1 | Cc1c([C@H]2CCCCC[C@@H]2N)sc2c(NCc3cccs3)cc(Cl)nc12 [Compound 81, 2-((1S,2S)-2-aminocycloheptyl)-5-chloro-3-methyl-N-(thiophen-2-ylmethyl)thieno[3,2-b]pyridin-7-amine] | 0.03 to 0.3 | 0.03 to 0.3
2 | Cc1c([C@@H]2CCCCC[C@@H]2N)sc2c(NCc3cccs3)cc(Cl)nc12 [Compound 82, 2-((1R,2S)-2-aminocycloheptyl)-5-chloro-3-methyl-N-(thiophen-2-ylmethyl)thieno[3,2-b]pyridin-7-amine] | 0.3 to 1 | 0.3 to 1
3 | Cc1c([C@@H]2CCCCC[C@H]2N)sc2c(NCc3cccs3)cc(Cl)nc12 [Compound 83, 2-((1R,2R)-2-aminocycloheptyl)-5-chloro-3-methyl-N-(thiophen-2-ylmethyl)thieno[3,2-b]pyridin-7-amine] | > 1 | > 1
4 | Cc1c([C@H]2CCCCC[C@H]2N)sc2c(NCc3cccs3)cc(Cl)nc12 [Compound 84, 2-((1S,2R)-2-aminocycloheptyl)-5-chloro-3-methyl-N-(thiophen-2-ylmethyl)thieno[3,2-b]pyridin-7-amine] | > 1 | > 1
5 | N[C@@H]1CCCCC[C@@H]1c1cc2nc(Cl)cc(NCc3cccs3)c2s1 [Compound 88, 2-((1S,2R)-2-aminocycloheptyl)-5-chloro-N-(thiophen-2-ylmethyl)thieno[3,2-b]pyridin-7-amine] | > 1 | > 1
6 | N[C@H]1CCCCC[C@H]1c1cc2nc(Cl)cc(NCc3cccs3)c2s1 [Compound 89, 2-((1R,2S)-2-aminocycloheptyl)-5-chloro-N-(thiophen-2-ylmethyl)thieno[3,2-b]pyridin-7-amine] | > 1 | > 1
7 | N[C@H]1CCCCC[C@@H]1c1cc2nc(Cl)cc(NCc3cccs3)c2s1 [Compound 90, 2-((1S,2S)-2-aminocycloheptyl)-5-chloro-N-(thiophen-2-ylmethyl)thieno[3,2-b]pyridin-7-amine] | 0.3 to 1 | 0.3 to 1
8 | N[C@H]1CCCCCC[C@H]1c1sc2c(NCc3cccs3)cc(Cl)nc2c1Cl [Compound 91, 2-((1R,2S)-2-aminocyclooctyl)-3,5-dichloro-N-(thiophen-2-ylmethyl)thieno[3,2-b]pyridin-7-amine] | > 1 | > 1
9 | Cc1c([C@@H]2CCCCCC[C@H]2N)sc2c(NCc3cccs3)cc(Cl)nc12 [Compound 92, 2-((1R,2R)-2-aminocyclooctyl)-5-chloro-3-methyl-N-(thiophen-2-ylmethyl)thieno[3,2-b]pyridin-7-amine] | > 1 | > 1
10 | Cc1c([C@H]2CCCCCC[C@H]2N)sc2c(NCc3cccs3)cc(Cl)nc12 [Compound 93, 2-((1S,2R)-2-aminocyclooctyl)-5-chloro-3-methyl-N-(thiophen-2-ylmethyl)thieno[3,2-b]pyridin-7-amine] | > 1 | > 1
11 | Cc1c([C@H]2CCCCCC[C@@H]2N)sc2c(NCc3cccs3)cc(Cl)nc12 [Compound 94, 2-((1S,2S)-2-aminocyclooctyl)-5-chloro-3-methyl-N-(thiophen-2-ylmethyl)thieno[3,2-b]pyridin-7-amine] | 0.3 to 1 | 0.03 to 0.3
12 | Cc1c([C@@H]2CCCCCC[C@@H]2N)sc2c(NCc3cccs3)cc(Cl)nc12 [Compound 95, 2-((1R,2S)-2-aminocyclooctyl)-5-chloro-3-methyl-N-(thiophen-2-ylmethyl)thieno[3,2-b]pyridin-7-amine] | > 1 | > 1
13 | N[C@H]1CCCCCC[C@@H]1c1sc2c(NCc3cccs3)cc(Cl)nc2c1Cl [Compound 96, 2-((1S,2S)-2-aminocyclooctyl)-3,5-dichloro-N-(thiophen-2-ylmethyl)thieno[3,2-b]pyridin-7-amine] | 0.03 to 0.3 | 0.03 to 0.3
14 | N[C@@H]1CCCCCC[C@H]1c1sc2c(NCc3cccs3)cc(Cl)nc2c1Cl [Compound 97, 2-((1R,2R)-2-aminocyclooctyl)-3,5-dichloro-N-(thiophen-2-ylmethyl)thieno[3,2-b]pyridin-7-amine] | > 1 | > 1
15 | N[C@@H]1CCCCCC[C@@H]1c1sc2c(NCc3cccs3)cc(Cl)nc2c1Cl [Compound 98, 2-((1S,2R)-2-aminocyclooctyl)-3,5-dichloro-N-(thiophen-2-ylmethyl)thieno[3,2-b]pyridin-7-amine] | > 1 | > 1
16 | N[C@H]1CCCCCC[C@@H]1c1sc2c(NCc3cccs3)cc(Cl)nc2c1Br [Compound 99, 2-((1S,2S)-2-aminocyclooctyl)-3-bromo-5-chloro-N-(thiophen-2-ylmethyl)thieno[3,2-b]pyridin-7-amine] | 0.03 to 0.3 | 0.03 to 0.3
17 | N[C@@H]1CCCCCC[C@H]1c1sc2c(NCc3cccs3)cc(Cl)nc2c1Br [Compound 100, 2-((1R,2R)-2-aminocyclooctyl)-3-bromo-5-chloro-N-(thiophen-2-ylmethyl)thieno[3,2-b]pyridin-7-amine] | > 1 | > 1

Row | Structure (SMILES) | IC50 [1] [µM] | IC50 [2] [µM]
18 | N[C@@H]1CCCCCC[C@@H]1c1sc2c(NCc3cccs3)cc(Cl)nc2c1Br [Compound 101, 2-((1S,2R)-2-aminocyclooctyl)-3-bromo-5-chloro-N-(thiophen-2-ylmethyl)thieno[3,2-b]pyridin-7-amine] | > 1 | > 1
19 | N[C@H]1CCCCCC[C@H]1c1sc2c(NCc3cccs3)cc(Cl)nc2c1Br [Compound 102, 2-((1R,2S)-2-aminocyclooctyl)-3-bromo-5-chloro-N-(thiophen-2-ylmethyl)thieno[3,2-b]pyridin-7-amine] | > 1 | > 1
20 | N[C@H]1CCCCCC[C@@H]1c1cc2nc(Cl)cc(NCc3cccs3)c2s1 [Compound 103, 2-((1S,2S)-2-aminocyclooctyl)-5-chloro-N-(thiophen-2-ylmethyl)thieno[3,2-b]pyridin-7-amine] | > 1 | > 1
21 | N[C@H]1CCCCCC[C@H]1c1cc2nc(Cl)cc(NCc3cccs3)c2s1 [Compound 104, 2-((1R,2S)-2-aminocyclooctyl)-5-chloro-N-(thiophen-2-ylmethyl)thieno[3,2-b]pyridin-7-amine] | > 1 | > 1
22 | N[C@@H]1CCCCCC[C@H]1c1cc2nc(Cl)cc(NCc3cccs3)c2s1 [Compound 105, 2-((1R,2R)-2-aminocyclooctyl)-5-chloro-N-(thiophen-2-ylmethyl)thieno[3,2-b]pyridin-7-amine] | > 1 | > 1
23 | N[C@@H]1CCCCCC[C@@H]1c1cc2nc(Cl)cc(NCc3cccs3)c2s1 [Compound 106, 2-((1S,2R)-2-aminocyclooctyl)-5-chloro-N-(thiophen-2-ylmethyl)thieno[3,2-b]pyridin-7-amine] | > 1 | > 1
24 | Cc1c([C@H]2CCC[C@@H]2N)sc2c(NCc3ccccc3)cc(Cl)nc12 [Compound 107, 2-((1S,2S)-2-aminocyclopentyl)-N-benzyl-5-chloro-3-methylthieno[3,2-b]pyridin-7-amine] | 0.3 to 1 | 0.3 to 1
25 | N[C@H]1CCCO[C@@H]1c1sc2c(NCc3ccccc3)cc(Cl)nc2c1Br [Compound 108, 2-((2S,3S)-3-aminotetrahydro-2H-pyran-2-yl)-N-benzyl-3-bromo-5-chlorothieno[3,2-b]pyridin-7-amine] | ≤ 0.03 | ≤ 0.03
26 | Cc1c([C@@H]2OCCC[C@H]2N)sc2c(NCc3ccccc3)cc(Cl)nc12 [Compound 109, 2-((2R,3R)-3-aminotetrahydro-2H-pyran-2-yl)-N-benzyl-5-chloro-3-methylthieno[3,2-b]pyridin-7-amine] | 0.03 to 0.3 | 0.03 to 0.3
27 | N[C@H]1CCCO[C@@H]1c1sc2c(NCc3ccccc3)cc(Cl)nc2c1Cl [Compound 110, 2-((2S,3S)-3-aminotetrahydro-2H-pyran-2-yl)-N-benzyl-3,5-dichlorothieno[3,2-b]pyridin-7-amine] | 0.03 to 0.3 | ≤ 0.03
28 | N[C@H]1CCC[C@H]1c1cc2nc(Cl)cc(NCc3cccs3)c2s1 [Compound 111, 2-((1R,2S)-2-aminocyclopentyl)-5-chloro-N-(thiophen-2-ylmethyl)thieno[3,2-b]pyridin-7-amine] | > 1 | 0.3 to 1
29 | N[C@@H]1CCC[C@H]1c1cc2nc(Cl)cc(NCc3cccs3)c2s1 [Compound 112, 2-((1R,2R)-2-aminocyclopentyl)-5-chloro-N-(thiophen-2-ylmethyl)thieno[3,2-b]pyridin-7-amine] | > 1 | > 1
30 | N[C@@H]1CCCO[C@H]1c1sc2c(NCc3ccccc3)cc(Cl)nc2c1Br [Compound 113, 2-((2R,3R)-3-aminotetrahydro-2H-pyran-2-yl)-N-benzyl-3-bromo-5-chlorothieno[3,2-b]pyridin-7-amine] | > 1 | > 1
31 | N[C@@H]1CCC[C@H]1c1sc2c(NCc3ccco3)cc(Cl)nc2c1Cl [Compound 114, 2-((1R,2R)-2-aminocyclopentyl)-3,5-dichloro-N-(furan-2-ylmethyl)thieno[3,2-b]pyridin-7-amine] | > 1 | > 1
32 | N[C@H]1CCCO[C@@H]1c1sc2c(NCc3ccco3)cc(Cl)nc2c1Br [Compound 115, 2-((2S,3S)-3-aminotetrahydro-2H-pyran-2-yl)-3-bromo-5-chloro-N-(furan-2-ylmethyl)thieno[3,2-b]pyridin-7-amine] | ≤ 0.03 | ≤ 0.03
33 | N[C@H]1CCCO[C@@H]1c1sc2c(NCc3ccco3)cc(Cl)nc2c1Cl [Compound 116, 2-((2S,3S)-3-aminotetrahydro-2H-pyran-2-yl)-3,5-dichloro-N-(furan-2-ylmethyl)thieno[3,2-b]pyridin-7-amine] | ≤ 0.03 | ≤ 0.03

— patent US20250382305A1 (PTC THERAPEUTICS, INC., priority 2022, published 2025)
